Data on 14 molecules can be found in ChEMBL document CHEMBL1201862, “PubChem BioAssay data set” (2004).

Molecules are shown by their SMILES. The source made the active and inactive calls.

The target in assay [1] is Protein-tyrosine kinase 2-beta (Homo sapiens, UniProt Q14289).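 Also: potency of inhibitors of PYK2 kinase phosphorylation of poly-GT substrate.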
Assay [2] deals with 5-hydroxytryptamine receptor 1A (Homo sapiens, UniProt P08908). Type of assay: functional.
Assay [3] addresses T1, DNA repair protein RAD52 homolog (Homo sapiens, UniProt P43351).
T1 sequence (P43351 whole entry): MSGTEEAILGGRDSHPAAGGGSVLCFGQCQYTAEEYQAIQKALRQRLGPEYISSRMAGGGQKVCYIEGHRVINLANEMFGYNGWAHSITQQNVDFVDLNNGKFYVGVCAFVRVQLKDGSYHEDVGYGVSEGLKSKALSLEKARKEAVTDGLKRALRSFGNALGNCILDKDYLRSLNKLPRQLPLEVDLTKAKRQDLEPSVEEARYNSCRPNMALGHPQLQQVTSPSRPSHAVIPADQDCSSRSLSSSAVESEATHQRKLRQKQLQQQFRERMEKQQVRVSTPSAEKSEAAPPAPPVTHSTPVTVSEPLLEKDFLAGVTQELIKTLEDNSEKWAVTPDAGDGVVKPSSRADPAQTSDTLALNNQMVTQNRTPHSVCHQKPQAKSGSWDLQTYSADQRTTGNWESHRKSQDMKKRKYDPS
The assay is classed as functional, biochemical.

Assay [4] can be described thus: P. falciparum Dd2 growth inhibitors, dose response, SYBR Green, dry powder samples (AID 1159566).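 Also: potency for growth inhibition with lower SYBR green DNA signal.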 The assay is classed as functional, cell-based.
A short description of assay [5]: Plasmodium falciparum Dd2 Sybr green parasite growth Measured in Cell-Based and Microorganism Combination System Using Plate Reader - 2153-01_Inhibitor_Dose_DryPowder_Activity_Set3. Type of assay: functional.
A short description of assay [6]: P. falciparum ATP4 D1247Y mutant growth inhibitors, dose response, NITD609-resistant line, SYBR Green, dry powder (AID 1159571).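 Also: parasites synchronized at ring stage by sorbitol before testing.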 The assay is classed as functional, cell-based.
Assay [7] in a line: HepG2 cell cytotoxicity, dose response, cytotoxicity control, plate reader, dry powder samples (AID 1159569).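 Also: inhibitor potency with signal falling toward the positive control level.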 The assay is classed as functional, cell-based.
The nature of assay [8]: P. falciparum 3D7-ScDHODH growth inhibitors, dose response, SYBR Green, dry powder samples (AID 1159570).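 Also: parasite growth measured after 72 hours of compound exposure.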 The assay is classed as functional, cell-based.
Assay [9] is described as follows: P. falciparum Dd2 growth inhibitors, dose response, SYBR Green, cherry-picked samples (AID 1159567). Type of assay: functional, cell-based.
Assay [10] concerns the target Solute carrier family 12 member 2/member 5 (Homo sapiens, UniProt P55011+Q9H2X9). The assay is described as follows: KCC2 and NKCC1 inhibition by rubidium flux, cell-based, NKCC1 counter-screen (AID 1734). The assay is classed as functional, HEK293. (In general: A counterscreen serves to expose hits that act by an unwanted route or on another target.)
Assay [11] can be described thus: HEK293T cell cytotoxicity, dose response, cytotoxicity control, CellTiter-Glo luminescence, dry powder, set 6 (AID 651949). Type of assay: functional, cell-based. The note with it: HEK293. In general terms: In ATP-based viability assays light output follows the ATP content of the culture.
The nature of assay [12]: cytotoxicity in HepG2 cells, dose response, cytotoxicity control, cell-based, plate reader, dry powder (AID 651947). Type of assay: functional.
For assay [13], the target named is Heat shock protein HSP 90-alpha (Homo sapiens, UniProt P07900). Nature of the assay: Luminescence-based dose response biochemical high throughput screening assay for inhibitors of the Heat Shock Protein 90 (HSP90). [Related pubchem assays: 1831 (Summary AID.), 1846 (Confirmation screen.), 1789 (Primary screen.)].
The next assay deals with Cytochrome P450 3A4 (Homo sapiens, UniProt P08684).
Another assay deals with Vero. The assay is described as follows: West Nile virus antiviral activity, cell-based, CPE readout (AID 1621). The assay is classed as functional. The note with it: Chlorocebus sabaeus.
Assay [14] addresses T2, Histone-lysine N-methyltransferase NSD2 (Homo sapiens, UniProt O96028).
T2 sequence (O96028 whole entry): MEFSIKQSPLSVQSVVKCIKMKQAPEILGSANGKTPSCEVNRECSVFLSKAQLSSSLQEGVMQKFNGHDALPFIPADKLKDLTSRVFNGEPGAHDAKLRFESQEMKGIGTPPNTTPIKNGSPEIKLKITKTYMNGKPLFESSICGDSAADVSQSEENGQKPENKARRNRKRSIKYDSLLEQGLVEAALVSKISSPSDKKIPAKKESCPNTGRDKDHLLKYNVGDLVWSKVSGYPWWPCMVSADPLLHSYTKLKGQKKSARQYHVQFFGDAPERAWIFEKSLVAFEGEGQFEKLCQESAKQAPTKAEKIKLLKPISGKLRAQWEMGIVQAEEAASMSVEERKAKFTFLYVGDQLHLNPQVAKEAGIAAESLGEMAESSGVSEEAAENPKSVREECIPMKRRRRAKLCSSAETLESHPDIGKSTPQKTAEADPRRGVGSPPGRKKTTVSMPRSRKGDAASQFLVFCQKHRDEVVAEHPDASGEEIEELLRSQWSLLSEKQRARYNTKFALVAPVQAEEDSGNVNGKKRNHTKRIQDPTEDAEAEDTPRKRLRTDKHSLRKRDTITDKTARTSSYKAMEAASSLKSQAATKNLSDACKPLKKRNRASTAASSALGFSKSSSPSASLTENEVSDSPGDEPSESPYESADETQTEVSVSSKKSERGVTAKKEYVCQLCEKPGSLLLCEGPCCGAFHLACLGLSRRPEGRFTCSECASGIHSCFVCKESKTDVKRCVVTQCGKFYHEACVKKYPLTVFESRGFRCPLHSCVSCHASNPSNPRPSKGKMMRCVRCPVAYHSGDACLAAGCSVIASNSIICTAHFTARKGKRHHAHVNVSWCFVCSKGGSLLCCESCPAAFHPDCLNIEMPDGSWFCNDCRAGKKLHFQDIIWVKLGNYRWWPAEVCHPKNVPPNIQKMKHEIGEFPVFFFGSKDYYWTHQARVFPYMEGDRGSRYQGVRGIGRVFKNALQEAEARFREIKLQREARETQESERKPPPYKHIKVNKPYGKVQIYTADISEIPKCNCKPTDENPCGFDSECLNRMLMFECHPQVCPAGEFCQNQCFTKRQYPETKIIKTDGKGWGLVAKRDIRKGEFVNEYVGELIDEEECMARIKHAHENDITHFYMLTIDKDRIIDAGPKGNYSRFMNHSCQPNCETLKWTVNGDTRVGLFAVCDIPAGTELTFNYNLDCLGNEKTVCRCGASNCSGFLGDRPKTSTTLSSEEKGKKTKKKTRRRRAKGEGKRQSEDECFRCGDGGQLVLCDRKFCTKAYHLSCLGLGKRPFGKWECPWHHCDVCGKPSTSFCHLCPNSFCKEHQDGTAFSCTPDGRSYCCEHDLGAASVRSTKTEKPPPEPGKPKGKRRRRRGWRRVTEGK
Type of assay: biochemical.

Assay [15] has as its target E3 ubiquitin-protein ligase UHRF1 (Homo sapiens, UniProt Q96T88). Nature of the assay: Counterscreen for inhibitors of 5-meCpG-binding domain protein 2 (MBD2): TRFRET-based biochemical high throughput dose response assay to identify inhibitors of binding of ubiquitin-like with PHD and ring finger domains 1 (UHRF1) to methylated oligonucleotide.
Assay [16] in a line: Luminescence Cell-Based Dose Response HTS to Identify Activators of Luciferase Translation or Activity in H4 […] Cells. [Related pubchem assays: 1829 (Project Summary), 1814 (Primary HTS)]. Type of assay: functional.
Assay [17] concerns the target Aryl hydrocarbon receptor (Homo sapiens, UniProt P35869). The assay is described as follows: Luminescence-based cell-based high throughput dose response assay for activators of the Aryl Hydrocarbon Receptor (AHR). [Related pubchem assays: 2796 (Primary screen (AHR activators in singlicate)), 2845 (Confirmation screen (AHR activators in triplicate)), 434939 (Counterscreen (PXR activators in triplicate)), 2804 (Summary (AHR activators))]. The assay is classed as ADME.

The test system of the next assay is H4. Nature of the assay: Luminescence Cell-Based Dose Response HTS to Identify Activators of 5'UTR Stem-Loop Driven Prion Protein mRNA Translation in H4 Neuroglioblastoma Cells. [Related pubchem assays: 1829 (Project Summary), 1814 (Primary HTS)]. The assay is classed as functional. The note with it: Homo sapiens.
Assay [18] has as its target Photoreceptor-specific nuclear receptor (Homo sapiens, UniProt Q9Y5X4). Nature of the assay: NR2E3 inverse agonists, dose response, biochemical, TR-FRET (AID 463256). Type of assay: functional. For orientation: TR-FRET usually uses a lanthanide donor and a delayed reading to cut background.
Assay [19] deals with Peroxisome proliferator-activated receptor gamma/Nuclear receptor corepressor 2 (Homo sapiens, UniProt P37231+Q9Y618). The assay is described as follows: Counterscreen for NR2E3 inverse agonists: TR-FRET-based biochemical high throughput dose response assay to identify inverse agonists of the interaction between peroxisome proliferator-activated receptor gamma (PPARg) and nuclear receptor co-repressor 2 (NCOR2). Type of assay: functional.

A short description of assay [20]: HeLa 2N DNA content increase, dose response, cell-based, IC50 (AID 1117349). Type of assay: functional.
A further assay deals with Protein Wnt-3a (Mus musculus, UniProt P27467). The assay is described as follows: Wnt3a-driven reporter signaling inhibition, dose response, selectivity assay for Gli-SUFU antagonist project, Wnt-LIGHT cells, luminescence (AID 651570).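 Also: Wnt-LIGHT reporter cells stimulated with conditioned medium from Wnt3a-producing cells.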 Type of assay: functional. To be noted: read-out: IC50_Mean.
For another assay, the system named is INS1. Nature of the assay: beta cell apoptosis inhibitors, cytokine rescue, dose response, luminescence, retest (AID 449756).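 Also: cell death triggered by IL-1 beta plus TNF-alpha plus IFN-gamma mixture; protective hits raise ATP signal compared with cytokine alone wells.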 The assay is classed as functional, cell-based. The note with it: Rattus norvegicus.
Assay [21] in a line: HeLa 4N DNA content increase, dose response, cell-based, IC50 (AID 1117351). Type of assay: functional.
In another assay the test system is HT-1080. Nature of the assay: cytotoxicity in HT1080 fibrosarcoma cells, cell-based, fluorescence readout (AID 620). Type of assay: functional. To be noted: Homo sapiens.
A further assay addresses Genome polyprotein (Hepatitis C virus, UniProt Q2Q167). The assay is described as follows: HCV core protein dimerization inhibitors, dose response, biochemical, TR-FRET (AID 2159).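 Also: blocks dimerization of HCV core protein measured by TR-FRET between tagged core106 pairs.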 Further details: species or system Hepacivirus hominis.
Assay [22] is described as follows: inhibitors of LMP1-driven NF-kB reporter, dose response, cell-based, EBV LMP1, luciferase, dry powder, set 2 (AID 624361). The assay is classed as functional.
Assay [23] addresses NAD-dependent protein deacylase sirtuin-5, mitochondrial (Homo sapiens, UniProt Q9NXA8). Nature of the assay: SIRT5 deacylase inhibitors, dose response, biochemical, fluorescence imaging, cherry-pick, set 6 (AID 720597).

Chain of E3 ubiquitin-protein ligase UHRF1 (Q96T88 whole entry, the tested form may be a part): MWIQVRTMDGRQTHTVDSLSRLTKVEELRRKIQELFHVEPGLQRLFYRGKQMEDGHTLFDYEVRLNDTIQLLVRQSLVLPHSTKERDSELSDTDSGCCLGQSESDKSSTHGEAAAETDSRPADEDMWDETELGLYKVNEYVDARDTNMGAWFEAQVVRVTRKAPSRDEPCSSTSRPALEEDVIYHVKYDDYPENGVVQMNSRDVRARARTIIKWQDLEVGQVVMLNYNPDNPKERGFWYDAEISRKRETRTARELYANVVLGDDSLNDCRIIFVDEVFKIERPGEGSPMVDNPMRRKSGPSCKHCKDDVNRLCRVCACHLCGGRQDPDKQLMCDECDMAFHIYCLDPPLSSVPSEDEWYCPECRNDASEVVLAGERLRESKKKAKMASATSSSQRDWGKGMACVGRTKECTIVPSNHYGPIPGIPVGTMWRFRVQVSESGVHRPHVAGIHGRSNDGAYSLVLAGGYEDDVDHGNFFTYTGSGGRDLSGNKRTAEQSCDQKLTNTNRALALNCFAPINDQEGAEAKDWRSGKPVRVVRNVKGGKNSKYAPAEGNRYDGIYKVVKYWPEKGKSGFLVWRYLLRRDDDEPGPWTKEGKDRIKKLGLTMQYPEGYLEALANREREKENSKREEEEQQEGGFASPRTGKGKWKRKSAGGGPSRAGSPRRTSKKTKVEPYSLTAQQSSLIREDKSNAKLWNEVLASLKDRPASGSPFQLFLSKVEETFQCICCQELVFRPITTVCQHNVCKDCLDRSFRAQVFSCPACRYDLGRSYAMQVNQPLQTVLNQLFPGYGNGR
Chain of Genome polyprotein (Q2Q167 whole entry): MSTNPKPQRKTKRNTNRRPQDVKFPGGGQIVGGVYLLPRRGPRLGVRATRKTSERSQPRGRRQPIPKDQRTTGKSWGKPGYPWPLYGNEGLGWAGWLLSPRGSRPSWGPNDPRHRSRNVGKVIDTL
Chain of Protein Wnt-3a (P27467 whole entry): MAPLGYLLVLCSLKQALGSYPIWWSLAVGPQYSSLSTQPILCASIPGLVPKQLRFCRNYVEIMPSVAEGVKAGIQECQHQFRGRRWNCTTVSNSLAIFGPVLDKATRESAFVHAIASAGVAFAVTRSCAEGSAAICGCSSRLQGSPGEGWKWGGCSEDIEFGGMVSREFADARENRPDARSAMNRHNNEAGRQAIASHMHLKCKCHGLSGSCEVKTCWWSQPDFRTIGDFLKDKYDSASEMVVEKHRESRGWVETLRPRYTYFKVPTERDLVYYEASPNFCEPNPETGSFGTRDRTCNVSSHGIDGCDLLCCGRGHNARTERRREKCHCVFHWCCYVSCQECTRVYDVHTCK
Chain of Protein-tyrosine kinase 2-beta (Q14289 whole entry): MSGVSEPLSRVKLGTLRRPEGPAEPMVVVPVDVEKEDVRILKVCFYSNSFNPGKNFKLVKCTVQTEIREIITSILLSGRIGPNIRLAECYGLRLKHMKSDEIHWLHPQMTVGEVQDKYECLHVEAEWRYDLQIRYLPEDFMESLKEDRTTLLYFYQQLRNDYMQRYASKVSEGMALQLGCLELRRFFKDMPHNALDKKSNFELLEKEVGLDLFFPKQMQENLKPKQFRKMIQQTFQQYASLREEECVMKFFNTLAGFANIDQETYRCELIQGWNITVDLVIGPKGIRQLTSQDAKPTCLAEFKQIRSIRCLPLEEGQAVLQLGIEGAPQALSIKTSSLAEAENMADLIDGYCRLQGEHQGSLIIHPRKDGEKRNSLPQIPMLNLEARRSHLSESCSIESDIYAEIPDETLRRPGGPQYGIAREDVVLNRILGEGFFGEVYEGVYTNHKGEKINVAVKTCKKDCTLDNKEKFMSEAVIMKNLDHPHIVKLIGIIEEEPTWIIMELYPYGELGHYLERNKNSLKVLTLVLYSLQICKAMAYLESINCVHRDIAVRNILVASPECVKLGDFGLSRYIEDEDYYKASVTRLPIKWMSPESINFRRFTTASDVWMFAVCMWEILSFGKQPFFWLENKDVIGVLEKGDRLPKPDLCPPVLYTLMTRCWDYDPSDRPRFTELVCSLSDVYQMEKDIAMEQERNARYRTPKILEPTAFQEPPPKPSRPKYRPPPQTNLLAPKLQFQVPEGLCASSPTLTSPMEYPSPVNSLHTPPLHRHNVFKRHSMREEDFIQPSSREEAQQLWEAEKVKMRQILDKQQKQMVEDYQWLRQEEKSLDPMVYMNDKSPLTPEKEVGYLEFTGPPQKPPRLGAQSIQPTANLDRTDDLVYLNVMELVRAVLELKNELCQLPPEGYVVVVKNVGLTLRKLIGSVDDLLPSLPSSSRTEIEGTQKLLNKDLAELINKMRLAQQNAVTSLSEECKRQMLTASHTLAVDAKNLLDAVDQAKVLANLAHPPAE
Chain of Aryl hydrocarbon receptor (P35869 whole entry): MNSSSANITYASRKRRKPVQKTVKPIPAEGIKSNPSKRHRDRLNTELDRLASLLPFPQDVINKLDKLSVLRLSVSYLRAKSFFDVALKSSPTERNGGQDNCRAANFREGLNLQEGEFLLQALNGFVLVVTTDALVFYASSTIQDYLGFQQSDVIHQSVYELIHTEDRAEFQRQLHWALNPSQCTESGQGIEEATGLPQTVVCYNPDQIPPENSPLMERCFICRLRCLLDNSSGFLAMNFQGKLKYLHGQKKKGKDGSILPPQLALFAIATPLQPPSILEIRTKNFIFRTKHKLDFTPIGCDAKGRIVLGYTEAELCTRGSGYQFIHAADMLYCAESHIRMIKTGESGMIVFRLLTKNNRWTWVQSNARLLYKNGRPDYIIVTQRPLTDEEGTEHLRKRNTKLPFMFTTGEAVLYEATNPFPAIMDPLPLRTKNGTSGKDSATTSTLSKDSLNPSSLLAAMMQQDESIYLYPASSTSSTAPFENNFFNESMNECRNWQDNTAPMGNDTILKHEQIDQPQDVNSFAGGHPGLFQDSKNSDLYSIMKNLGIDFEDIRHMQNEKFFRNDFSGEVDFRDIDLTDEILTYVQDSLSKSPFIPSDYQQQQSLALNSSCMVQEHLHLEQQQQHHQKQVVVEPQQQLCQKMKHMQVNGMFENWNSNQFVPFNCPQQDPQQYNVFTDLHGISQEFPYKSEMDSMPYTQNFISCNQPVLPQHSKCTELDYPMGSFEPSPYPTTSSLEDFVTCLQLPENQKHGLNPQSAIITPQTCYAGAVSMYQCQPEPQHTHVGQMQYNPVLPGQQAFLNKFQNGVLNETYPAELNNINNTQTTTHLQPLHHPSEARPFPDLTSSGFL
Chain of Photoreceptor-specific nuclear receptor (Q9Y5X4 whole entry): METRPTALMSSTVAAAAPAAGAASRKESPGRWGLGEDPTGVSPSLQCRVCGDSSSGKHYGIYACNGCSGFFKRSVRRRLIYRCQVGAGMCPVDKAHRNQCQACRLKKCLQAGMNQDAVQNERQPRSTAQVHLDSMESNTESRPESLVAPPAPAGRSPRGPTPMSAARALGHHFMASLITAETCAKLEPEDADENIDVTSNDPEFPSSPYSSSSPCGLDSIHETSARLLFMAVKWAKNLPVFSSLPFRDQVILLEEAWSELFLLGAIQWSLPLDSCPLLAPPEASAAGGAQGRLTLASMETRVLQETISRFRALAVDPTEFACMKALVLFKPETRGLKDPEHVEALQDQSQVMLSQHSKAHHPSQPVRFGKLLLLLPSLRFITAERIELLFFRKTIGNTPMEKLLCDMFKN
Chain of 5-hydroxytryptamine receptor 1A (P08908 whole entry): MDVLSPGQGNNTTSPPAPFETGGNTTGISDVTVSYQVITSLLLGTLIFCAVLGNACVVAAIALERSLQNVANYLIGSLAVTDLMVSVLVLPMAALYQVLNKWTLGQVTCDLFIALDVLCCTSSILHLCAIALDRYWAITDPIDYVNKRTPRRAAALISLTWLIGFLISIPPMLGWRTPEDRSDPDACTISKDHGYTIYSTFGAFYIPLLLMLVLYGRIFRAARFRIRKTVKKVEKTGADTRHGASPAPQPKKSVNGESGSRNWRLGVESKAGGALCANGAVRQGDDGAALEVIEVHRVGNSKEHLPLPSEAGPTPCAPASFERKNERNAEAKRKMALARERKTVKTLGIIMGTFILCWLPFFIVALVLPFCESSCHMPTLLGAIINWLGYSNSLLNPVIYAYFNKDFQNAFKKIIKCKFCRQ
Chain of Cytochrome P450 3A4 (P08684 whole entry): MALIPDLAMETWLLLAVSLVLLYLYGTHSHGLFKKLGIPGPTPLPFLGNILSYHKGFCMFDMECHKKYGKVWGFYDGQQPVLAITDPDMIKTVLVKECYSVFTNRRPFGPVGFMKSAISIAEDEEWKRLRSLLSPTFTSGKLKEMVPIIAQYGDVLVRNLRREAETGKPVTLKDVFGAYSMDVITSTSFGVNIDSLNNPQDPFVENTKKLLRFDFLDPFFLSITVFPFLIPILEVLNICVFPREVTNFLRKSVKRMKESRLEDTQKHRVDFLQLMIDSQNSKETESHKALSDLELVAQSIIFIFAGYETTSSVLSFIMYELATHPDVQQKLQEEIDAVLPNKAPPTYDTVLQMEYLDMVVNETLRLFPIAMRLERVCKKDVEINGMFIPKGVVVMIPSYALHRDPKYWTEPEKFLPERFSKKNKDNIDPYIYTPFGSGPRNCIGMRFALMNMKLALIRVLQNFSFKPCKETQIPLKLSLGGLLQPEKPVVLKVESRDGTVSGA
Chain of NAD-dependent protein deacylase sirtuin-5, mitochondrial (Q9NXA8 whole entry): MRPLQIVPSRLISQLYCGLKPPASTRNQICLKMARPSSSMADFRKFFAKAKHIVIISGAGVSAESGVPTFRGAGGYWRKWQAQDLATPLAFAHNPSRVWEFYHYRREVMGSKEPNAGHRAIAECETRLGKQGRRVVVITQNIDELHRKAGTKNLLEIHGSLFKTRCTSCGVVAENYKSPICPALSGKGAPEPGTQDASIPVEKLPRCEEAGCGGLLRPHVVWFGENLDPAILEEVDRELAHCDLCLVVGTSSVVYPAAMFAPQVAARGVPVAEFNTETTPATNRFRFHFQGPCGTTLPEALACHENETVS

On to `NC(=O)c1sc2nc3c(c(-c4ccco4)c2c1N)CCC3`, for which the IC50 in [1] is 10.2 µM (not active).

One may read the EC50 as the concentration at which the effect is half-maximal. What is called AC50 is the midpoint of the concentration-response curve, whichever way the signal moves. Regarding `Cc1[nH]c2ccccc2c1C1=CCNCC1`, in assay [2], the concentration giving a half-maximal response (EC50) is recorded as > 50 µM (not active). Also, the AC50 in assay [3] was 4.56 µM (active).

With `CC(C)NC(=O)N1[C@H](C#N)[C@H](c2ccc(C#CC3CCCC3)cc2)[C@@H]1CO`, the AC50 is 0.684 µM (active) in assay [4]; 0.845 µM (active) in assay [5]; 0.887 µM (active) in [6]; 36.7 µM (active) in [7]; 3.52 µM (active) in assay [8]; 0.803 µM (active) in [9].

`O=C(CCS(=O)(=O)Cc1ccccc1)Nc1nc2c(s1)CCCC2`: the IC50 in assay [10] was 13.4 µM (active).

Consider `[O-][S+](Cc1cn(Cc2ccc(F)cc2)nn1)c1nnc(-c2ccc(Cl)cc2)o1` (stereo not given), for which the AC50 in assay [11] is 17.2 µM (active); in assay [12] it was 15.1 µM (active).

For the molecule `CCOC(=O)C1CCCN(C(=O)c2sc3nc(-c4ccc(OC)cc4)cn3c2C)C1` (stereo not given), in assay [13], the IC50 was 5.85 µM (active). In addition, at Cytochrome P450 3A4, the concentration at half-maximal activity (AC50) is 14.1 µM (inconclusive).

In the case of `COc1ccc(-c2csc(N(CCCN(C)C)C(=O)c3ccccc3Cl)n2)cc1`, the IC50 in the assay with Vero is 25 µM (active). The AC50 in [14] was > 20 µM (inactive).

For the molecule `CC(=O)Nc1sc2c(c1-c1nc3ccccc3s1)CCN(C(C)C)CC2`, in [15], the IC50 was 16.9 µM (inactive).

For `Cc1ccc(/C=N/n2cc(-c3ccccc3)nc2S)s1`, the values for the EC50 (in [16]; in [17]; in the assay with H4) were 10.4 µM (active), 1.44 µM (active) and 20 µM (active), respectively.

On to `COc1ccc(C(=O)NCc2ccc(-c3nc4ccccc4s3)cc2)cc1OC`, for which the figures for the IC50 in assay [18] and in assay [19] were 5.83 µM (active) and 6.27 µM (active), respectively.

Regarding `CCCCCCC[N+](CC)(CC)CCCCc1ccc(Cl)cc1`, the IC50 in assay [20] was > 10 µM (inactive); at Protein Wnt-3a it was 2.74 µM (active); in assay [21] it was > 10 µM (inactive). Besides, the AC50 in the assay with INS1 is 4.29 µM (active).

As to `COc1ccc2[nH]c(-c3ccc(N)cc3)nc2c1`, the EC50 in the assay with HT-1080 is given as > 50 µM (not active).

On to `COc1ccc(C(=O)NC(=S)Nc2ccc3[nH]c(=O)[nH]c3c2)c(OC)c1`, for which the IC50 at Genome polyprotein is recorded as > 49.8 µM (not active).

The molecule `Cc1noc(C)c1S(=O)(=O)Nc1ccc2c(c1)C(=O)N([C@@H](C)CO)C[C@@H](C)[C@@H](CN(C)Cc1ccc(C(F)(F)F)cc1)OCCCC[C@@H](C)O2` registered an AbsAC35 in assay [22] of 38.34 µM. Further, the AC50 in assay [23] was > 15 µM (inactive).
